Data from US9518282B2, “Method for utilizing monoterpene glycosyltransferase” (SUNTORY HOLDINGS LIMITED, priority 2010, dated 2016).

Legend:
UGT85A3 [1] = biological target: T1, UGT85A3 (Arabidopsis thaliana, UniProt Q9LMF1); assay: Glycosylation activity of purified UGT85A3 on sugar acceptor substrates, LC-MS; assay type: biochemical; design: made in house; host or cells: E. coli BL21(DE3); details: for glycosylation activity of UGT85A3 on the sugar acceptor (product detected by LC-MS): 2 mM UDP-glucose, 1.5 mM sugar acceptor substrate, pH 7.5, 30° C., 1 hour
T1 sequence (Q9LMF1 1-488): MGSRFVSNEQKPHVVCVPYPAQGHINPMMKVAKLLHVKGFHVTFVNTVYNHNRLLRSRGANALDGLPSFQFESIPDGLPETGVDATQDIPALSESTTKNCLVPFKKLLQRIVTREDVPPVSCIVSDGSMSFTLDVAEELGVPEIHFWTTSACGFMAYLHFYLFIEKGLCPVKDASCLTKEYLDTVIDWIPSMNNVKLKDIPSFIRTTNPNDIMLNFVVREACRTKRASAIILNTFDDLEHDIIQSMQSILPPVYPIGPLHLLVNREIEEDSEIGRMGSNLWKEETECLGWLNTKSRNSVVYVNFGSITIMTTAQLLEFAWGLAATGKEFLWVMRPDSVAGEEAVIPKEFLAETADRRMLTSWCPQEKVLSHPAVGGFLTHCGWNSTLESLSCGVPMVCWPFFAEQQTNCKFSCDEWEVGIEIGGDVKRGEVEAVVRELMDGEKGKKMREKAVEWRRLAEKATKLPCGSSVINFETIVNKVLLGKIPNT
Protocol: Standard enzyme reaction conditions are as follows. […] LC Conditions Column: CAPCELL PAK C18-UG120 (2.0 mm I.D.×150 mm) Mobile phase: A: water (containing 0.05% formic acid), B: acetonitrile Gradient: linear concentration gradient of B from 15% to 90% over 15 minutes Flow rate: 0.2 ml per minute Column oven: 40° C. MS Conditions ESI (negative mode) SIM mode: (m/z 315, 338, 361, 363, 331, 354, 377, 429, etc.)

UGT85A1 = biological target: T2, UGT85A1 (Arabidopsis thaliana, UniProt Q9SK82); assay: Glycosylation activity of UGT85A1 on sugar acceptors, LC-MS; assay type: biochemical; details: for relative activity of UGT85A1 on sugar acceptors (in words, FIG. 12): measured per unit reaction time (5 minutes); for glycosylated product of UGT85A1 reaction detected (FIG. 11): same manner as Example 4, LC-MS
T2 construct: made in house; host or cells: E. coli
T2 sequence (Q9SK82 1-489): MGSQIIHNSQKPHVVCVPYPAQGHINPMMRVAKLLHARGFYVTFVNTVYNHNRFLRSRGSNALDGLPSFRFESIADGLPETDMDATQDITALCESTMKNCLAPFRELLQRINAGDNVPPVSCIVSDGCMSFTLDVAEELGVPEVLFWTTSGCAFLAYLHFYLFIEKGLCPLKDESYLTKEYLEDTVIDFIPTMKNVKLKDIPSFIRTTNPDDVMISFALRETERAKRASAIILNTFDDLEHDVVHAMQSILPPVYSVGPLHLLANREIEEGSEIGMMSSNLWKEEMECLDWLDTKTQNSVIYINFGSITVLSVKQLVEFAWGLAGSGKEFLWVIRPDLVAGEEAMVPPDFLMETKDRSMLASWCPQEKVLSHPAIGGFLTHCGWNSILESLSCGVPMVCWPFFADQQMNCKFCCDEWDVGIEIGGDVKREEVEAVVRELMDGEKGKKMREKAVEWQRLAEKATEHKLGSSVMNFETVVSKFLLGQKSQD
Protocol: (§1) Standard enzyme reaction conditions are as follows.
(§2) The enzyme reaction solution (5 μl) was analyzed by LC-MS under the following conditions.
In the same manner as shown in Example 4, linalool, 8-hydroxylinalool, geraniol and 8-hydroxygeraniol were used as sugar acceptors for activity measurement.

UGT85A3 [2] = biological target: T1, UGT85A3; details: 8-hydroxygeraniol as sugar acceptor; fraction of the UDP-glucose level
Protocol: as §1, §2

glycosylation activity of UGT85A3 on the sugar acceptor (product detected by LC-MS) (UGT85A3 [1])	relative activity of UGT85A1 on sugar acceptors (in words, FIG. 12) (UGT85A1)	glycosylated product of UGT85A1 reaction detected (FIG. 11) (UGT85A1)	Compound	other results
no glycosylation activity			O=c1ccc2cc(O)c(O)cc2o1 [Esculetin]	
	very low relative activity	glycosylated products were detected	C=CC(C)(O)CCC=C(C)C (stereo not shown) [linalool]	
no glycosylation activity			O=C1C[C@@H](c2ccc(O)cc2)Oc2cc(O)cc(O)c21 [Naringenin]	
glycosylation activity			C=CC(C)(O)CCC=C(C)CCC=C(C)C (stereo not shown) [nerolidol]	
no glycosylation activity			O=c1c(O)c(-c2ccc(O)c(O)c2)oc2cc(O)cc(O)c12 [Quercetin]	
glycosylation activity			CC(C)=CCCC(C)CCO (stereo not shown) [citronellol]	
no glycosylation activity			O=c1cc(-c2ccc(O)cc2)oc2cc(O)cc(O)c12 [Apigenin]	
			UDP-gluconic acid	product level with the sugar donor relative to that with UDP-glucose (FIG. 8) (UGT85A3 [2]): less than 1/10

Compound	glycosylation activity of UGT85A3 on the sugar acceptor (product detected by LC-MS) (UGT85A3 [1])	relative activity of UGT85A1 on sugar acceptors (in words, FIG. 12) (UGT85A1)	glycosylated product of UGT85A1 reaction detected (FIG. 11) (UGT85A1)	other results
CC(C)=CCC/C(C)=C/CO [geraniol]		higher selectivity for geraniol than linalool	glycosylated products were detected	
C/C(=C\CC/C(C)=C/CO)CO [8-hydroxygeraniol, 8-Hydroxygeraniol]	a peak with a molecular weight suggesting addition of one glucose molecule was obtained	higher activity	glycosylated products were detected	sugar acceptor selectivity of UGT85A1 (relative activity) (UGT85A1; highest activity set to 100%, FIG. 12): 100%; activity of UGT85A3 on the 8-hydroxylated form compared with geraniol / linalool (FIG. 7) (UGT85A3 [1]; UDP-glucose as sugar donor, product yields compared): higher activity
